Experimental findings from patent US10035775B2, “Compositions for the treatment of fibrosis and fibrosis-related conditions” (VECTUS BIOSYSTEMS LIMITED, priority 2015, dated 2018) are described below.

The test system of assay [1] is bovine aortic endothelial cells. As to the kind of experiment: xCELLigence cellular impedance (cell index) in bovine aortic endothelial cells. Format: cell-based. To be noted: 62.5 μM, 125 μM or 250 μM, measured for 3 hours, FIG. 13. The source says: The xCELLigence SP system (Roche) was used to measure changes in cellular impedance (cell index) following the treatment of bovine aortic endothelial cells (European Collection of Cell Cultures) with test compound. In this in vitro cell based experimental system a negative impedance profile correlates with blood pressure reduction in rats—a decrease in impedance is associated with vasodilatation and an increase in impedance is associated with vasoconstriction (Stallaert W, Dorn J F, van der Westhuizen E, Audet M & Bouvier M. Impedance responses reveal β-adrenergic signaling […] and allow classification of ligands with distinct signalling profiles PLoS ONE 2012; 7(1):e29420, doi:10.1371/journal.pone.0029420).
Briefly, 50 μl of cell culture medium (DMEM low glucose supplemented with 15% fetal bovine serum at 37° C.) was added to each well of an E-Plate 96 (Roche), and the background impedance in each well was measured. 50 μl of bovine aortic endothelial cell suspension (10,000 cells/well) was then added to the appropriate wells of the E-Plate 96. Cell index was monitored for each well of the E-Plate 96 in RTCA SP Station within the cell culture incubator. After overnight incubation for 16-20 hours at 5% CO2 and 95% humidity, 100 μl of test compound solution (test compounds were prepared in DMSO and diluted with cell culture medium to a concentration of 62.5 μM, 125 μM or 250 μM of test compound with a final DMSO concentration of 0.25%) was added to the appropriate wells of the E-Plate 96 and cell index values were measured immediately following compound treatment every 20 seconds for 3 hours. Cell index value is baseline-corrected by subtracting the cell index of vehicle-treated cells and normalized by dividing by the cell index at the time point immediately before compound addition. Baseline normalized cell index as a function of time is plotted using Roche RTCA software.

For assay [2], the system named is SHR. As to the kind of experiment: Hepatic fibrosis in SHR on high fat diet. Format: in vivo, rat. To be noted: 10% ethanol drinking solution, 500 pmol/kg/min for 6 weeks, compared to controls, FIG. 17. The procedure: Fourteen week old SHR on a high fat diet (Glen Forrest Stockfeeders) were randomly assigned to test compound drinking solution (500 pmol/kg/min test compound in 10% ethanol in deionised distilled water) or control drinking solution (10% ethanol in deionised distilled water). […] To quantitate tissue fibrosis and/or fat content, tissue slices≤3 mm thick were fixed in 10% buffered formalin for 24 hours, processed and embedded in paraffin. Three micron transverse sections were stained using Masson's trichrome stain. A minimum of 20 random fields at magnification×20 from transverse sections (5 at each of 2 levels) were digitized and the degree of fibrosis determined as a percent of field area of each digitized image using Image-Pro Plus V.7 (Media Cybernetics, Bethesda, Md., USA) then averaged to determine the level of fibrosis and/or fat content for each rat.

In assay [3] the test system is SHR. As to the kind of experiment: Masson's tri-chrome stained sections of portal tracts (liver tissue architecture). Format: in vivo, rat. To be noted: treated rats versus control, FIG. 18. The source says: (§1) Fourteen week old SHR on a high fat diet (Glen Forrest Stockfeeders) were randomly assigned to test compound drinking solution (500 pmol/kg/min test compound in 10% ethanol in deionised distilled water) or control drinking solution (10% ethanol in deionised distilled water). After 4 weeks, rats were anaesthetised and blood samples were taken for analysis of plasma aminotransferase (AST) levels and livers were harvested. To quantitate tissue fibrosis and/or fat content, tissue slices≤3 mm thick were fixed in 10% buffered formalin for 24 hours, processed and embedded in paraffin. Three micron transverse sections were stained using Masson's trichrome stain. A minimum of 20 random fields at magnification×20 from transverse sections (5 at each of 2 levels) were digitized and the degree of fibrosis determined as a percent of field area of each digitized image using Image-Pro Plus V.7 (Media Cybernetics, Bethesda, Md., USA) then averaged to determine the level of fibrosis and/or fat content for each rat.

The subject of assay [4] is SHR. As to the kind of experiment: Fat accumulation in the liver in SHR on high fat diet. The assay is classed as in vivo, rat. To be noted: 500 pmol/kg/min for 4 weeks, compared to 18 week controls, FIG. 20, p<0.05.
Description: as §1

Assay [5] deals with Human (HPCT-wt-05) renal proximal tubule cells. As to the kind of experiment: Cisplatin induced cell death, human renal proximal tubule cells (WST-8/CCK-8). The assay is classed as cell-based. To be noted: human renal proximal tubular cells; cisplatin 5 μg/ml; 32 μM or 63 μM of compound; 24 hours; FIG. 14. The procedure: (§2) Human (HPCT-wt-05) and rat (NRK-52E) renal proximal tubule cells grown in (Keratinocyte Medium II+Keratinocyte Growth Supplement+5 ng/ml human recombinant epidermal growth factor+5% FBS+2 mM glutamine or DMEM+10% FBS+1% NEAA+2 mM glutamine respectively) were placed in 96 well plates at 10,000 cells/well and incubated at 37° C. with 5% CO2 overnight. Test compounds at concentrations of 32 μM or 63 μM were incubated with human or rat renal proximal tubule cells for 2 hours at 37° C. and 5% CO2. Cis-diamminedichloroplatinum[…] (cisplatin) was then added at a concentration of 5 μg/ml for human cells and 12.5 μg/ml for rat cells. Each cell population was then incubated for 24 hours at 37° C. with 5% CO2. Test compound A32 was maintained at its original concentrations. To assay the cytotoxic effects of cisplatin on the human and rat renal proximal tubule cells a highly water-soluble tetrazolium salt, WST-8, which is reduced by dehydrogenases in cells to produce formazan, a water-soluble, yellow-coloured indicator dye was used following the manufacturer's instructions (specifically the Cell Count Kit-8 (CCK-8) assay from Sigma). Plate absorbance of the WST-8 (CCK-8) reagent was then measured at 450 nm using a Thermo Scientific Multiskan EX plate reader.
For orientation: Tetrazolium dyes change colour on reduction, which living cells bring about.

Assay [6] has as its system rat (NRK-52E) renal proximal tubule cells. Nature of the assay: Cisplatin induced cell death, rat renal proximal tubule cells (WST-8/CCK-8). Format: cell-based. To be noted: rat renal proximal tubular cells; cisplatin 12.5 μg/ml; 32 μM or 63 μM of compound; 24 hours; FIG. 14. As for the experimental part:
as §2

The subject of assay [7] is SHR. As to the kind of experiment: Interstitial fibrosis in the kidney in SHR on 2.2% salt diet. Format: in vivo, rat. To be noted: 5% ethanol drinking solution, 500 pmol/kg/min for 4 weeks, compared to 18 week controls, FIG. 15. The source says:
(§3) Fourteen week old SHR on a 2.2% salt diet (Glen Forrest Stockfeeders) were randomly assigned to zero time control, test compound treatment (500 pmol/kg/min) in the drinking solution or control drinking solution (5% ethanol in deionised distilled water (n=5 each group). The rats assigned to zero time control group (14 weeks old rats) were anaesthetised and had their kidneys and heart harvested while rats assigned to control and test compound treatment were weighed twice weekly and had their drinking solution intake monitored to allow adjustment of the test compound concentration in the drinking solution to maintain a constant dose over the 4-week study period (18 weeks old rats). At the completion of the study period, rats were anaesthetised and had their kidneys and heart harvested. To quantitate tissue fibrosis and/or fat content, tissue slices≤3 mm thick were fixed in 10% buffered formalin for 24 hours, processed and embedded in paraffin. Three micron transverse sections were stained using Masson's trichrome stain. A minimum of 20 random fields at magnification×20 from transverse sections (5 at each of 2 levels) were digitized and the degree of fibrosis determined as a percent of field area of each digitized image using Image-Pro Plus V.7 (Media Cybernetics, Bethesda, Md., USA) then averaged to determine the level of fibrosis and/or fat content for each rat.

In assay [8] the test system is SHR. As to the kind of experiment: Myocardial fibrosis in SHR on 2.2% salt diet. Format: in vivo, rat. To be noted: 5% ethanol drinking solution, 500 pmol/kg/min for 4 weeks, compared to 14 and 18 week controls, FIG. 16.
Description: as §3

Assay [9] deals with SHR. As to the kind of experiment: Masson's tri-chrome stained sections of heart tissue (tissue architecture). Format: in vivo, rat. To be noted: treated rats versus control, FIG. 19.
Description: as §3

The test system of assay [10] is SHR. As to the kind of experiment: Plasma aminotransferase (AST) levels in SHR on high fat diet. The assay is classed as in vivo, rat. To be noted: 10% ethanol drinking solution, compared to controls, FIG. 21, p<0.025. As for the experimental part: Fourteen week old SHR on a high fat diet (Glen Forrest Stockfeeders) were randomly assigned to test compound drinking solution (500 pmol/kg/min test compound in 10% ethanol in deionised distilled water) or control drinking solution (10% ethanol in deionised distilled water). After 4 weeks, rats were anaesthetised and blood samples were taken for analysis of plasma aminotransferase (AST) levels and livers were harvested. Plasma AST levels were measured using a RefloVET Plus (Roche) machine using consumable strips with magnetic assay identifiers recognized by the machine. A calibration standard was used in the machine prior to each use and the device was operated according to the manufacturer's instructions. Results are presented as international units per liter (IU/L).

As to `NC(CCc1cc(-c2ccccc2)ccc1-c1cccc(O)c1)C(F)(F)F` (stereo not drawn) [A6, 2′-(3-Amino-4,4,4-trifluorobutyl)-1,1′:4′,1″-terphenyl-3-ol], in assay [1], the “Cell impedance response (baseline normalized cell index)” value is reported as “Negative impedance responses”. In assay [2], the Hepatic fibrosis entry is “decreased”. In assay [3], the “Tissue architecture in portal tract sections” value was “normal tissue architecture has been restored”.

Regarding `O=C1NCCC1Cc1cc(-c2ccccc2)ccc1-c1cccc(O)c1` (stereo not drawn) [A26], the “Cell impedance response (baseline normalized cell index)” value in [1] is “Negative impedance responses”.

With `O=C1NCC/C1=C\c1cc(-c2ccccc2)ccc1-c1cccc(O)c1` [A27], the “Cell impedance response (baseline normalized cell index)” value in assay [1] is “Negative impedance responses”. Besides, the Hepatic fibrosis result in assay [2] was “decreased”. In addition, in [3], the “Tissue architecture in portal tract sections” value is recorded as “normal tissue architecture has been restored”. For the same molecule, the “Fat in the liver” value in assay [4] is “reduced”.

Turning to `O=C1CC(Cc2cc(-c3ccccc3)ccc2-c2cccc(O)c2)C(=O)N1` (stereo not drawn) [A30, 3-[(3-Hydroxy-1,1′:4′,1″-terphenyl-2′-yl)methyl]pyrrolidine-2,5-dione], in [1], the “Cell impedance response (baseline normalized cell index)” value is recorded as “Negative impedance responses”.

`O=C1NC(=O)C(Cc2cc(-c3ccccc3)ccc2-c2cccc(O)c2)N1` (stereo not drawn) [A32, 5-((3-Hydroxy-[1,1′:4′,1″-terphenyl]-2′-yl)methyl)imidazolidine-2,4-dione]: the “Cell impedance response (baseline normalized cell index)” value in assay [1] is listed as “Negative impedance responses”. Further, the “Cisplatin induced cell death” value in [5] and in [6] was “decreased” throughout. In addition, the “Fibrosis in the kidney” value in assay [7] is given as “decreased”. Moreover, the Myocardial fibrosis entry in [8] is given as “decreased”. Also, in assay [2], the Hepatic fibrosis result is “decreased”. Further, the “Tissue architecture in portal tract sections” value in [3] is “normal tissue architecture has been restored”. Also, in assay [9], the “Fibrous tissue and tissue architecture in heart sections” value was “minimal fibrous tissue is present and normal tissue architecture has been restored”. Besides, the “Fat in the liver” value in assay [4] was “reduced”. Besides, the “Plasma AST levels” value in assay [10] is “decreased”.

As for `Nc1nocc1Cc1cc(-c2ccccc2)ccc1-c1cccc(O)c1` [A35], in assay [1], the “Cell impedance response (baseline normalized cell index)” value is listed as “Negative impedance responses”.

For the molecule `NOCCc1cc(-c2ccccc2)ccc1-c1cccc(O)c1` [A56, 2′-[2-(Aminooxy)ethyl]-1,1′:4′,1″-terphenyl-3-ol], the “Cell impedance response (baseline normalized cell index)” value in assay [1] is reported as “Negative impedance responses”. In addition, in assay [3], the “Tissue architecture in portal tract sections” value is recorded as “normal tissue architecture has been restored”. For the same molecule, the “Fat in the liver” value in assay [4] is listed as “reduced”.

Take `OCCc1cc(-c2ccccc2)ccc1-c1cccc(O)c1` [A56f, 2′-(2-Hydroxyethyl)-1,1′:4′,1″-terphenyl-3-ol]: the “Cell impedance response (baseline normalized cell index)” value in [1] is “Negative impedance responses”. Besides, in assay [2], the Hepatic fibrosis result is listed as “decreased”. Further, in [3], the “Tissue architecture in portal tract sections” value was “normal tissue architecture has been restored”. Further, the “Plasma AST levels” value in [10] is recorded as “decreased”.

As for `O=C1c2ccccc2C(=O)N1OCCc1cc(-c2ccccc2)ccc1-c1cccc(O)c1` [A56g, 2-[2-(3-Hydroxy-1,1′:4′,1″-terphenyl-2′-yl)ethoxy]-1H-isoindole-1,3(2H)-dione], the “Cell impedance response (baseline normalized cell index)” value in assay [1] is “Negative impedance responses”.

Take `O=C(O)Cc1cc(-c2ccccc2)ccc1-c1cccc(O)c1` [A56k, (3-Hydroxy-1,1′:4′,1″-terphenyl-2′-yl)acetic acid]: the “Cell impedance response (baseline normalized cell index)” value in assay [1] was “Negative impedance responses”.

In the case of `OCc1cc(-c2ccccc2)ccc1-c1cccc(O)c1` [A81], the “Cell impedance response (baseline normalized cell index)” value in [1] was “Negative impedance responses”.
